# According to patent US8420341B2, “Methods for measuring ADP” (Genewiz Inc., Suzhou, priority 2007, dated 2013):
# Target: PKA (Homo sapiens, UniProt P17612)
# Assay: PKA kinase reaction, ADP luminescent enzyme-coupled assay
# Format: biochemical
# Conditions: 5 μM ATP, 30 μM Kemptide, 2.5 nM PKA, 90 minutes at room temperature; FIGS. 4A-4B
# Procedure: Assay Procedures 1. Add 10 μl reagent A to 30 μl kinase reaction mixtures and incubate at RT. 2. Add 10 μl reagent B and read luminescence immediately.
# At the end of incubation, 10 μl Reagent B were added and luminescence was measured. Each data point represents the average of 3 repeats.
compound,measurement,value
O=S(=O)(NCCNC/C=C/c1ccc(Br)cc1)c1cccc2cnccc12 [H89],luminescence signals (PKA activity) with increasing amounts of inhibitor,decreased luminescence signals in a dose dependent manner
